Experimental data as given in BindingDB's records for doi:10.1021/jm0009181 (National Center For Genetic Engineering and Biotechnology …, 2000).

Target: Bifunctional dihydrofolate reductase-thymidylate synthase (Plasmodium falciparum, UniProt A7UD81)
Assay: Evaluated for inhibition constant (Ki wt) against Wild-type dihydrofolate reductase of Plasmodium falciparum

Bifunctional dihydrofolate reductase-thymidylate synthase, sequence (A7UD81 whole entry): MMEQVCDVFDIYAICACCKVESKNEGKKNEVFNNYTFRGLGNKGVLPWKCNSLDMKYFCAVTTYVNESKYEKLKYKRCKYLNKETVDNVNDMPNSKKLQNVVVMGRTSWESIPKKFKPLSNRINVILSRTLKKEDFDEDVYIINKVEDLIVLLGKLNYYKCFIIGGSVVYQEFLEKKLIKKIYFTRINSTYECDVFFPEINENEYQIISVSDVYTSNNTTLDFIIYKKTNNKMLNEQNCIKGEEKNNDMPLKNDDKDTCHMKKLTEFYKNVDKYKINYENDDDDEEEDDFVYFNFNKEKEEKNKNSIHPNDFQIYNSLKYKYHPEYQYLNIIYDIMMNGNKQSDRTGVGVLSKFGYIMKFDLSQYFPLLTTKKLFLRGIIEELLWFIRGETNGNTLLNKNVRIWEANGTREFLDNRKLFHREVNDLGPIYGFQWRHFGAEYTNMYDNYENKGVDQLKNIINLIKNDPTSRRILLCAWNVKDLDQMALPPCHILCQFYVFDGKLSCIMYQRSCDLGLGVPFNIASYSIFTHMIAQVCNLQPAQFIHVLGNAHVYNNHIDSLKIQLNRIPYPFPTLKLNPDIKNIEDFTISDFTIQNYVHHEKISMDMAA

Structure (SMILES)	Ki
CC(C)C1N=C(N)N=C(N)N1c1ccc(Br)cc1 (stereo unspecified) [1-(4-Bromo-phenyl)-6-isopropyl-1,6-dihydro-[1,3,5]triazine-2,4-diamine]	30 nM
Cc1ccc(N2C(N)=NC(N)=NC2C(C)C)cc1 (stereo unspecified) [6-Isopropyl-1-p-tolyl-1,6-dihydro-[1,3,5]triazine-2,4-diamine]	167 nM
CCC1N=C(N)N=C(N)N1c1ccc(Cl)cc1 (stereo unspecified) [1-(4-Chloro-phenyl)-6-ethyl-1,6-dihydro-[1,3,5]triazine-2,4-diamine]	3.6 nM
NC1=NCN(c2ccccc2)C(N)=N1 [1-Phenyl-1,6-dihydro-[1,3,5]triazine-2,4-diamine]	329 nM
CC(C)C1N=C(N)N=C(N)N1c1ccc(Cl)cc1 (stereo unspecified) [1-(4-Chloro-phenyl)-6-isopropyl-1,6-dihydro-[1,3,5]triazine-2,4-diamine]	60.5 nM
NC1=NCN(c2ccc(Cl)cc2)C(N)=N1 [1-(4-Chloro-phenyl)-1,6-dihydro-[1,3,5]triazine-2,4-diamine]	24.4 nM
NC1=NC(c2ccccc2)N(c2ccc(Br)cc2)C(N)=N1 (stereo unspecified) [1-(4-Bromo-phenyl)-6-phenyl-1,6-dihydro-[1,3,5]triazine-2,4-diamine]	2.9 nM
CCCCC1N=C(N)N=C(N)N1c1ccc(Cl)cc1 (stereo unspecified) [6-Butyl-1-(4-chloro-phenyl)-1,6-dihydro-[1,3,5]triazine-2,4-diamine]	3.7 nM
CCCC1N=C(N)N=C(N)N1c1ccc(C)cc1 (stereo unspecified) [6-Propyl-1-p-tolyl-1,6-dihydro-[1,3,5]triazine-2,4-diamine]	13.7 nM
CCC1N=C(N)N=C(N)N1c1ccc(Br)cc1 (stereo unspecified) [1-(4-Bromo-phenyl)-6-ethyl-1,6-dihydro-[1,3,5]triazine-2,4-diamine]	5.7 nM
CC1(C)N=C(N)N=C(N)N1c1ccc(F)cc1 [1-(4-Fluoro-phenyl)-6,6-dimethyl-1,6-dihydro-[1,3,5]triazine-2,4-diamine]	4.6 nM
Cc1ccc(N2C(N)=NC(N)=NC2c2ccccc2)cc1 (stereo unspecified) [6-Phenyl-1-p-tolyl-1,6-dihydro-[1,3,5]triazine-2,4-diamine]	7.7 nM
NC1=NCN(c2ccc(F)cc2)C(N)=N1 [1-(4-Fluoro-phenyl)-1,6-dihydro-[1,3,5]triazine-2,4-diamine]	270 nM
CCCC1N=C(N)N=C(N)N1c1ccc(Br)cc1 (stereo unspecified) [1-(4-Bromo-phenyl)-6-propyl-1,6-dihydro-[1,3,5]triazine-2,4-diamine]	2.6 nM
CC1(C)N=C(N)N=C(N)N1c1ccc(Br)cc1 [1-(4-Bromo-phenyl)-6,6-dimethyl-1,6-dihydro-[1,3,5]triazine-2,4-diamine]	1.1 nM
CC1N=C(N)N=C(N)N1c1ccc(Cl)c(Cl)c1 (stereo unspecified) [1-(3,4-Dichloro-phenyl)-6-methyl-1,6-dihydro-[1,3,5]triazine-2,4-diamine]	1.4 nM
Cc1ccc(N2C(N)=NC(N)=NC2C)cc1 (stereo unspecified) [6-Methyl-1-p-tolyl-1,6-dihydro-[1,3,5]triazine-2,4-diamine]	23 nM
CCC1N=C(N)N=C(N)N1c1ccc(C)cc1 (stereo unspecified) [6-Ethyl-1-p-tolyl-1,6-dihydro-[1,3,5]triazine-2,4-diamine]	5.9 nM
CC1(C)N=C(N)N=C(N)N1c1ccccc1 [6,6-Dimethyl-1-phenyl-1,6-dihydro-[1,3,5]triazine-2,4-diamine]	20 nM
CCCC1N=C(N)N=C(N)N1c1ccc(Cl)cc1 (stereo unspecified) [1-(4-Chloro-phenyl)-6-propyl-1,6-dihydro-[1,3,5]triazine-2,4-diamine]	4.6 nM
CC1N=C(N)N=C(N)N1c1ccc(Br)cc1 (stereo unspecified) [1-(4-Bromo-phenyl)-6-methyl-1,6-dihydro-[1,3,5]triazine-2,4-diamine]	5.7 nM
